Experimental data as given in US20160108004A1, “TREATMENT OR PREVENTION OF NEURODEGENERATIVE DISORDERS USING MENTHOL, LINALOOL AND/OR ICILIN” (NESTEC S.A., priority 2013, published 2016).

Columns and labels:
[1] = system: Lateral Amygdala glutamatergic neuron; assay: whole cell, current clamp recordings in a Lateral Amygdala glutamatergic neuron (mouse brain slice); assay type: cell-based; settings: for inactivation of the sodium fast channels relative to control: square pulse of 2.5 s at high depolarization of membrane potential (approximately −30 mV), FIG. 2
Source text: (§1) A mouse brain slice was used to study the effects of Menthol, Linalool and Icilin. The amygdaloid complex is located within the medial temporal lobe in neocortex and amygdala. The lateral and basolateral nuclei of the amygdaloid complex receive sensory information from cortical and thalamic structures, process the information, and then transmit the information, either directly or through the basal nucleus, to the central nucleus. For experimental analysis of neural activity, synaptic responses from the basolateral complex can be evoked electrically using electrodes, and the action potentials can be measured.
A square pulse of 2.5 s was applied at high depolarization of membrane potential (approximately −30 mV).

[2] = system: Lateral Amygdala glutamatergic neuron; assay: whole cell, current clamp recordings with increasing concentration of gabazine (spontaneous action potential bursts); assay type: cell-based, mouse
Source text: as §1

Structure (SMILES) | amount of current required to trigger an action potential [1] | threshold to trigger an action potential [1] | action potentials at higher stimulation levels [1] | inactivation of the sodium fast channels relative to control [1] | spontaneous action potential bursts ([2]; increasing concentrations of gabazine applied extracellularly, recordings of 5 min each, washout 10 min, FIG. 3) | spontaneous bursts in the presence of gabazine ([2]; Menthol 250 μM applied extracellularly 10 minutes previous to and during exposure to increasing concentrations of gabazine, FIG. 5 compared to FIG. 3)
C=CC(C)(O)CCC=C(C)C (centres unmarked) [Linalool] | increase the amount of current required to trigger an action potential | increase the threshold to trigger an action potential | abort action potentials at higher stimulation levels | inactivation of the sodium fast channels happens sooner relative to control |  | 
COc1ccc(-c2ccc(=N)n(CCCC(=O)O)n2)cc1 [gabazine, reference compound] |  |  |  |  | neurons spontaneously present action potential bursts | 
CC1CCC(C(C)C)C(O)C1 (centres unmarked) [Menthol] | increase the amount of current required to trigger an action potential | increase the threshold to trigger an action potential | abort action potentials at higher stimulation levels | inactivation of the sodium fast channels happens sooner relative to control |  | complete absence or a strongly decreased presence of spontaneous bursts
O=C1NC(c2cccc([N+](=O)[O-])c2)=CCN1c1ccccc1O [Icilin] | increase the amount of current required to trigger an action potential | increase the threshold to trigger an action potential | abort action potentials at higher stimulation levels | inactivation of the sodium fast channels happens sooner relative to control |  | 
